Assay results taken from patent publication US9328083B2, “2-aminated methylene or 2-esterified methylene tanshinone derivatives, and preparation method and application thereof” (HANGZHOU BENSHENG PHARMACEUTICAL CO., LTD., priority 2011, dated 2016).
In brackets after ≈: the same amount, converted by molar mass.

Key:
[1] = test system: H9 (acute lymphoblastic leukemia, ALL); test: MTT growth inhibition of leukemia cells, 72 h; type: cell-based, human; details: Homo sapiens, H9, 72 h; for IC50: read-out: IC50; for IC90: read-out: IC90
Summary of the method: (§1)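 Viable cell concentration is determined by MTT after 72 h exposure at 37 °C in 5% CO2. Cells (6000 per well) grow in RPMI-1640 containing 10% fetal bovine serum, and graded compound concentrations are added one day after seeding.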

[2] = test system: Jurkat (acute lymphoblastic leukemia, ALL); test: MTT growth inhibition of leukemia cells, 72 h; type: cell-based, human; details: Homo sapiens, 72 h; for IC50: read-out: IC50; for IC90: read-out: IC90
Summary of the method: as §1

[3] = test system: K562/adr (drug-resistant, chronic myeloid leukemia, CML); test: MTT growth inhibition of leukemia cells, 72 h; type: cell-based, human; details: Homo sapiens, K562/Adr; for IC50: read-out: IC50; for IC90: read-out: IC90
Summary of the method: as §1

[4] = test system: Kasumi-1 (acute myeloid leukemia M2 type, AML-M2); test: MTT growth inhibition of leukemia cells, 72 h; type: cell-based, human; details: Homo sapiens, Kasumi-1, 72 h; for IC50: read-out: IC50; for IC90: read-out: IC90
Summary of the method: as §1

[5] = test system: NB4 (acute promyelocytic leukemia, AML); test: MTT growth inhibition of leukemia cells, 72 h; type: cell-based, human; details: Homo sapiens, NB4, 72 h; for IC50: read-out: IC50; for IC90: read-out: IC90
Summary of the method: as §1

[6] = test system: RPMI8226 (multiple myeloma); test: MTT growth inhibition of multiple myeloma cells, 72 h; type: cell-based, human; details: Homo sapiens, RPMI 8226, 72 h; for IC50: read-out: IC50; for IC90: read-out: IC90
Summary of the method: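 RPMI8226 myeloma cells, 6000 per well in 1640 medium with 10% FBS, exposed to compounds at a range of concentrations (diluted from 10 mg/mL DMSO stock) for 72 h at 37° C, 5% CO2. Viable cells then determined by MTT.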

A549 (human lung cancer) = test: MTT growth inhibition of human solid tumor cells, 72 h; type: cell-based; details: Homo sapiens, A549, 72 h; for IC50: read-out: IC50; for IC90: read-out: IC90
Summary of the method: (§2)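 Cells were seeded at 4000 per well in DMEM High Glucose with 10% fetal bovine serum and left 24 h at 37° C, 5% CO2. Tanshinone I derivatives were added at a range of concentrations, diluted in medium from a 10 mg/mL DMSO stock, and viable cell concentration was then determined.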

[7] = test system: Becap37 (human breast cancer cell); test: as above; type: cell-based; details: Homo sapiens, Becap-37, 72 h; for IC50: read-out: IC50; for IC90: read-out: IC90
Summary of the method: as §2

[8] = test system: CNE (nasopharyngeal carcinoma cell); test: as above; type: cell-based; details: Homo sapiens; for IC50: read-out: IC50; for IC90: read-out: IC90
Summary of the method: as §2

[9] = test system: CaES-17 (esophageal cancer cell); test: as above; type: cell-based; details: Homo sapiens, CaEs17, CaEs-17, 72 h; for IC50: read-out: IC50; for IC90: read-out: IC90
Summary of the method: as §2

[10] = test system: Hela (human cervical cancer cell); test: as above; type: cell-based; details: Homo sapiens, HeLa, 72 h; for IC50: read-out: IC50; for IC90: read-out: IC90
Summary of the method: as §2

[11] = test system: Hep G2 (human liver cancer cell); test: as above; type: cell-based; details: Homo sapiens, HepG2, Hep G2, 72 h; for IC50: read-out: IC50; for IC90: read-out: IC90
Summary of the method: as §2

[12] = test system: Hep-2 (laryngeal carcinoma); test: as above; type: cell-based; details: Homo sapiens, HEp-2, 72 h; for IC50: read-out: IC50; for IC90: read-out: IC90
Summary of the method: as §2

MG63 (osteosarcoma) = test: as above; type: cell-based; details: Homo sapiens, MG-63, 72 h; for IC50: read-out: IC50; for IC90: read-out: IC90
Summary of the method: as §2

[13] = test system: MGC 803 (human gastric cancer cell); test: as above; type: cell-based; details: Homo sapiens, MGC-803, 72 h; for IC50: read-out: IC50; for IC90: read-out: IC90
Summary of the method: as §2

[14] = test system: PANC-1 (pancreatic cancer); test: as above; type: cell-based; details: Homo sapiens, PANC-1, 72 h; for IC50: read-out: IC50; for IC90: read-out: IC90
Summary of the method: as §2

PC-3 (prostate cancer) = test: as above; type: cell-based; details: Homo sapiens, PC-3, 72 h; for IC50: read-out: IC50; for IC90: read-out: IC90
Summary of the method: as §2

[15] = test system: RKO (human colon adenocarcinoma cell); test: as above; type: cell-based; details: Homo sapiens; for IC50: read-out: IC50; for IC90: read-out: IC90
Summary of the method: as §2

[16] = test system: SK-OV-3 (ovarian cancer cell); test: as above; type: cell-based; details: Homo sapiens, SK-OV-3, 72 h; for IC50: read-out: IC50; for IC90: read-out: IC90
Summary of the method: as §2

[17] = test system: U87 MG (malignant glioma cell); test: as above; type: cell-based; details: Homo sapiens, U-87 MG, U87-MG, 72 h; for IC50: read-out: IC50; for IC90: read-out: IC90
Summary of the method: as §2

Row | SMILES | IC50 [1] [µg/mL] | IC90 [1] [µg/mL] | IC50 [2] [µg/mL] | IC90 [2] [µg/mL] | IC50 [3] [µg/mL] | IC90 [3] [µg/mL] | IC50 [4] [µg/mL] | IC90 [4] [µg/mL] | IC50 [5] [µg/mL] | IC90 [5] [µg/mL] | IC50 [6] [µg/mL] | IC90 [6] [µg/mL] | IC50 (A549 (human lung cancer)) [µg/mL] | IC90 (A549 (human lung cancer)) [µg/mL] | IC50 [7] [µg/mL] | IC90 [7] [µg/mL] | IC50 [8] [µg/mL] | IC90 [8] [µg/mL] | IC50 [9] [µg/mL] | IC90 [9] [µg/mL] | other results
1 | COC(=O)/C=C/C(=O)OCCN(C)Cc1oc2c(c1C)C(=O)C(=O)c1c-2ccc2c(C)cccc12 [BS-TA-74] | 0.25 (≈ 0.526 µM) | 1.49 (≈ 3.13 µM) | 0.96 (≈ 2.02 µM) | 1.86 (≈ 3.91 µM) | 0.8 (≈ 1.68 µM) | 1.8 (≈ 3.79 µM) | 0.26 (≈ 0.547 µM) | 1.57 (≈ 3.3 µM) | 0.19 (≈ 0.4 µM) | 0.49 (≈ 1.03 µM) | 0.45 (≈ 0.946 µM) | 1.78 (≈ 3.74 µM) | 1.79 (≈ 3.76 µM) | 6.05 (≈ 12.7 µM) | 0.85 (≈ 1.79 µM) | 1.81 (≈ 3.81 µM) | 1.39 (≈ 2.92 µM) | 2.91 (≈ 6.12 µM) | 1.09 (≈ 2.29 µM) | 1.86 (≈ 3.91 µM) | IC50 [10]: 1.15 µg/mL (≈ 2.42 µM); IC90 [10]: 3.59 µg/mL (≈ 7.55 µM); IC50 [11]: 1.35 µg/mL (≈ 2.84 µM); IC90 [11]: 5.26 µg/mL (≈ 11.1 µM); IC50 [12]: 1.28 µg/mL (≈ 2.69 µM); IC90 [12]: 3.67 µg/mL (≈ 7.72 µM); IC50 (MG63 (osteosarcoma)): 1.02 µg/mL (≈ 2.15 µM); IC90 (MG63 (osteosarcoma)): 3.26 µg/mL (≈ 6.86 µM); IC50 [13]: 0.8 µg/mL (≈ 1.68 µM); IC90 [13]: 3.87 µg/mL (≈ 8.14 µM); IC50 [14]: 0.87 µg/mL (≈ 1.83 µM); IC90 [14]: 11.1 µg/mL (≈ 23.3 µM); IC50 (PC-3 (prostate cancer)): 1.71 µg/mL (≈ 3.6 µM); IC90 (PC-3 (prostate cancer)): 8.19 µg/mL (≈ 17.2 µM); IC50 [15]: 0.28 µg/mL (≈ 0.589 µM); IC90 [15]: 2.88 µg/mL (≈ 6.06 µM); IC50 [16]: 3.96 µg/mL (≈ 8.33 µM); IC90 [16]: 7.99 µg/mL (≈ 16.8 µM); IC50 [17]: 0.86 µg/mL (≈ 1.81 µM); IC90 [17]: 1.83 µg/mL (≈ 3.85 µM)
2 | Cc1c(COC(=O)c2ccnc(Cl)c2)oc2c1C(=O)C(=O)c1c-2ccc2c(C)cccc12 [BS-TA-A01] | 3.09 (≈ 6.93 µM) | 10.4 (≈ 23.2 µM) | 3 (≈ 6.73 µM) | 9.27 (≈ 20.8 µM) | 2.33 (≈ 5.23 µM) | 6.24 (≈ 14 µM) | 1.75 (≈ 3.93 µM) | 3.91 (≈ 8.77 µM) | 0.99 (≈ 2.22 µM) | 3.97 (≈ 8.9 µM) | 3.39 (≈ 7.6 µM) | 7.85 (≈ 17.6 µM) | 6.23 (≈ 14 µM) | > 16 | 4.74 (≈ 10.6 µM) | 10.8 (≈ 24.1 µM) | 4.1 (≈ 9.2 µM) | 45 (≈ 101 µM) | 6.36 (≈ 14.3 µM) | 12.7 (≈ 28.4 µM) | IC50 [10]: 4.5 µg/mL (≈ 10.1 µM); IC90 [10]: 14.9 µg/mL (≈ 33.3 µM); IC50 [11]: 4.82 µg/mL (≈ 10.8 µM); IC90 [11]: 16 µg/mL (≈ 35.9 µM); IC50 [12]: 3.96 µg/mL (≈ 8.88 µM); IC90 [12]: 19.1 µg/mL (≈ 42.9 µM); IC50 (MG63 (osteosarcoma)): 2.87 µg/mL (≈ 6.44 µM); IC90 (MG63 (osteosarcoma)): 14 µg/mL (≈ 31.4 µM); IC50 [13]: 5.38 µg/mL (≈ 12.1 µM); IC90 [13]: 16 µg/mL (≈ 35.9 µM); IC50 [14]: 3.31 µg/mL (≈ 7.42 µM); IC90 [14]: 12 µg/mL (≈ 27 µM); IC50 (PC-3 (prostate cancer)): 5.32 µg/mL (≈ 11.9 µM); IC90 (PC-3 (prostate cancer)): 12.6 µg/mL (≈ 28.2 µM); IC50 [15]: 1.46 µg/mL (≈ 3.27 µM); IC90 [15]: 13.4 µg/mL (≈ 30.1 µM); IC50 [16]: > 16 µg/mL; IC90 [16]: > 16 µg/mL; IC50 [17]: 5.71 µg/mL (≈ 12.8 µM); IC90 [17]: 14.2 µg/mL (≈ 31.7 µM)
